Laboratory results published in patent US20260125360A1, “HERBICIDAL IMIDAZOLE COMPOUNDS” (SYNGENTA CROP PROTECTION AG, priority 2022, published 2026).

Columns and labels:
Format in all cases: in vivo
Conditions in all cases: 250 g/ha, evaluated after 13 days
[1] = system: Ipomoea hederacea (IPOHE); test: Post-emergence herbicide glasshouse test
How it was run: (§1)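 Spray: acetone/water 50:50 + 0.5% Tween 20, 250 g/ha unless stated; 1 d (pre) or 8 d (post) after sowing. Glasshouse 24/16° C, 14 h light, 65% RH, watered twice daily. Read-out at 13 d: % damage binned 1–5 (5=81-100%, 1=0-20%).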

[2] = system: Echinochloa crus-galli (ECHCG); test: Post-emergence herbicide glasshouse test
How it was run: as §1

[3] = system: Amaranthus palmeri (AMAPA); test: Post-emergence herbicide glasshouse test
How it was run: as §1

[4] = system: Amaranthus retoflexus (AMARE); test: Post-emergence herbicide glasshouse test
How it was run: as §1

[5] = system: Ipomoea hederacea (IPOHE); test: Pre-emergence herbicide glasshouse test
How it was run: as §1

[6] = system: Echinochloa crus-galli (ECHCG); test: Pre-emergence herbicide glasshouse test
How it was run: as §1

[7] = system: Amaranthus palmeri (AMAPA); test: Pre-emergence herbicide glasshouse test
How it was run: as §1

[8] = system: Amaranthus retoflexus (AMARE); test: Pre-emergence herbicide glasshouse test
How it was run: as §1

| Compound | percentage damage caused to the plant, IPOHE (five-point scale) [1] | percentage damage caused to the plant, ECHCG (five-point scale) [2] | percentage damage caused to the plant, AMAPA (five-point scale) [3] | percentage damage caused to the plant, AMARE (five-point scale) [4] | percentage damage caused to the plant, IPOHE (five-point scale) [5] | percentage damage caused to the plant, ECHCG (five-point scale) [6] | percentage damage caused to the plant, AMAPA (five-point scale) [7] | percentage damage caused to the plant, AMARE (five-point scale) [8] |
| --- | --- | --- | --- | --- | --- | --- | --- | --- |
| CCc1noc(Cn2cc(C(F)(F)F)nc2-c2ccc(Cl)nc2)n1 [Compound 1.098] | 3 (3=41-60%) | 1 (1=0-20%) | 4 (4=61-80%) | 4 (4=61-80%) | 4 (4=61-80%) | 1 (1=0-20%) | 5 (5=81-100%) | 5 (5=81-100%) |
| Cc1cc(Cn2cc(C(F)(F)F)nc2-c2ccc(Cl)nc2)n(C)n1 [Compound 1.147] | 3 (3=41-60%) | 1 (1=0-20%) | 2 (2=21-40%) | 3 (3=41-60%) | 4 (4=61-80%) | 1 (1=0-20%) | 2 (2=21-40%) | 2 (2=21-40%) |
| CON=Cc1cn(Cc2ncn(C)n2)c(-c2cnc(Cl)c(F)c2)n1 [Compound 1.180] | 4 (4=61-80%) | 1 (1=0-20%) | 2 (2=21-40%) | 1 (1=0-20%) | 5 (5=81-100%) | 1 (1=0-20%) | 4 (4=61-80%) | 5 (5=81-100%) |
| CCn1nnc(Cn2cc(C(F)(F)F)nc2-c2ccc(Cl)nc2)n1 [Compound 1.086] | 5 (5=81-100%) | 5 (5=81-100%) | 5 (5=81-100%) | 5 (5=81-100%) | 5 (5=81-100%) | 5 (5=81-100%) | 5 (5=81-100%) | 5 (5=81-100%) |
| CCON=Cc1cn(Cc2ncn(C)n2)c(-c2cnc(Cl)c(F)c2)n1 [Compound 1.172] | 2 (2=21-40%) | 2 (2=21-40%) | 2 (2=21-40%) | 3 (3=41-60%) | 5 (5=81-100%) | 5 (5=81-100%) | 5 (5=81-100%) | 5 (5=81-100%) |
| Cc1cc(Cn2cc(C(F)(F)F)nc2-c2ccc(Cl)nc2)nn1C [Compound 1.044] | 4 (4=61-80%) | 1 (1=0-20%) | 4 (4=61-80%) | 4 (4=61-80%) | 1 (1=0-20%) | 1 (1=0-20%) | 5 (5=81-100%) | 5 (5=81-100%) |
| Cc1noc(Cn2cc(C(F)(F)F)nc2-c2cnc(Cl)c(F)c2)n1 [Compound 1.166] | 2 (2=21-40%) | 1 (1=0-20%) | 4 (4=61-80%) | 4 (4=61-80%) | 5 (5=81-100%) | 1 (1=0-20%) | 5 (5=81-100%) | 5 (5=81-100%) |
| CCc1cnc(Cn2cc(C(F)(F)F)nc2-c2ccc(Cl)nc2)o1 [Compound 1.092] | 4 (4=61-80%) | 5 (5=81-100%) | 4 (4=61-80%) | 4 (4=61-80%) | 5 (5=81-100%) | 5 (5=81-100%) | 5 (5=81-100%) | 5 (5=81-100%) |
